Measurements from US12630547B2, “RAS protein degraders, pharmaceutical compositions thereof, and their therapeutic applications” (BioTheryX, Inc., priority 2019, dated 2026).

Key:
Format in all cases: cell-based
[1] = test system: MOLM-13 cells; assay: Cell viability assay (CELLTITER-GLO), MOLM-13 cells; details: Table 2, compound at 10 μM, 3 days; for viability at 10 µM: Homo sapiens, MOLM-13, 72 h, read-out: Effect on MOLM-13 cell viability (% DMSO)
Method in brief: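 Viability, as % of DMSO control, was read by CellTiter-Glo luminescence after a 3-day compound exposure (single dose of 10 μM or 1 μM) at 37 °C. Cells plated at 4,000/well in RPMI 1640 with 10% FBS. Results reported as categories A <10%, B 10–<25%, C 25–<50%, D ≥50%.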

[2] = test system: H23 cells; assay: Cell viability assay (CELLTITER-GLO), H23 cells; details: Table 4; 3 days
Method in brief: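 Luminescent CellTiter-Glo readout after 3-day compound treatment (37° C, 5% CO2) of H23 cells plated at 4,000 cells/well in RPMI 1640 plus 10% FBS, DMSO as control. IC50 values given as categorical ranges.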

[3] = test system: H358 cells; assay: Cell viability assay (CELLTITER-GLO), H358 cells; details: Table 4; 3 days
Method in brief: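 Luminescent ATP read-out (CellTiter-Glo) after 3-day incubation at 37 °C of H358 cells plated at 4,000/well in RPMI 1640 with 10% FBS. Values are either IC50 bins (A ≤1 μM through D >10 μM) or % of DMSO viability at 10 μM or 1 μM, bins A <10% through D ≥50%.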

Structure (SMILES)	viability at 10 µM [1]	Inhibition of H23 cells, IC50 (class) [2]	Inhibition of H358 cells, IC50 (class) [3]	Effect on MOLM-13 cell viability (% DMSO) [1]
C=C(Cl)C(=O)N1CCN(c2ncnc3c(F)c(-c4c(F)cccc4OCCC4CCC(CCN5CCC(c6cc(F)cc7c6CN(C6CCC(=O)NC6=O)C7=O)CC5)CC4)c(Cl)cc23)CC1 (stereo not drawn) [Compound 110, 3-(4-(1-(2-(4-(2-(2-(6-Chloro-4-(4-(2-chloroacryloyl)piperazin-1-yl)-8-fluoroquinazolin-7-yl)-3-fluorophenoxy)ethyl)cyclohexyl)ethyl)piperidin-4-yl)-6-fluoro-1-oxoisoindolin-2-yl)piperidine-2,6-dione]	< 10%	A′	B′	
C=C(Cl)C(=O)N1CCN(c2ncnc3c(F)c(-c4c(F)cccc4OCCc4ccc(CCN5CCC(c6cc(F)cc7c6CN(C6CCC(=O)NC6=O)C7=O)CC5)cc4)c(Cl)cc23)CC1 (stereo not drawn) [Compound 111, 3-(4-(1-(4-(2-(2-(6-Chloro-4-(4-(2-chloroacryloyl)piperazin-1-yl)-8-fluoroquinazolin-7-yl)-3-fluorophenoxy)ethyl)phenethyl)piperidin-4-yl)-6-fluoro-1-oxoisoindolin-2-yl)piperidine-2,6-dione]	< 10%	A′	B′	
C=C(Cl)C(=O)N1CCN(c2ncnc3c(F)c(-c4c(F)cccc4OCCCCCCCN4CCC(c5cc(F)cc6c5CN(C5CCC(=O)NC5=O)C6=O)C4)c(Cl)cc23)CC1 (stereo not drawn) [Compound 112, 3-(4-(1-(7-(2-(6-Chloro-4-(4-(2-chloroacryloyl)piperazin-1-yl)-8-fluoroquinazolin-7-yl)-3-fluorophenoxy)heptyl)pyrrolidin-3-yl)-6-fluoro-1-oxoisoindolin-2-yl)piperidine-2,6-dione]	< 10%	A′	B′	
C=C(Cl)C(=O)N1CCN(c2ncnc3c(F)c(-c4c(F)cccc4OCCCCCCCCCN4CCC(c5cc(F)cc6c5CN(C5CCC(=O)NC5=O)C6=O)CC4)c(Cl)cc23)CC1 (stereo not drawn) [Compound 113, 3-(4-(1-(9-(2-(6-Chloro-4-(4-(2-chloroacryloyl)piperazin-1-yl)-8-fluoroquinazolin-7-yl)-3-fluorophenoxy)nonyl)piperidin-4-yl)-6-fluoro-1-oxoisoindolin-2-yl)piperidine-2,6-dione]	< 10%	B′	B′	
C=C(Cl)C(=O)N1CCN(c2ncnc3c(F)c(-c4c(F)cccc4OCCCCCCCCCCCN4CCC(c5cc(F)cc6c5CN(C5CCC(=O)NC5=O)C6=O)CC4)c(Cl)cc23)CC1 (stereo not drawn) [Compound 114, 3-(4-(1-(11-(2-(6-Chloro-4-(4-(2-chloroacryloyl)piperazin-1-yl)-8-fluoroquinazolin-7-yl)-3-fluorophenoxy)undecyl)piperidin-4-yl)-6-fluoro-1-oxoisoindolin-2-yl)piperidine-2,6-dione]	< 10%	B′	B′	
C=C(Cl)C(=O)N1CCN(c2nc(OCCN(C)C)nc3c(F)c(-c4c(F)cccc4OCCCCCCCN4CCC(c5cc(F)cc6c5CN(C5CCC(=O)NC5=O)C6=O)CC4)c(Cl)cc23)CC1 (stereo not drawn) [Compound 115, 3-(4-(1-(7-(2-(6-Chloro-4-(4-(2-chloroacryloyl)piperazin-1-yl)-2-(2-(dimethylamino)-ethoxy)-8-fluoroquinazolin-7-yl)-3-fluorophenoxy)heptyl)piperidin-4-yl)-6-fluoro-1-oxoisoindolin-2-yl)piperidine-2,6-dione]	< 10%	A′	B′	
C=C(Cl)C(=O)N1CCN(c2ncnc3c(F)c(-c4c(F)cccc4OCCC4CCC(CCN5CCC(c6cc(F)cc7c6CN(C6CCC(=O)NC6=O)C7=O)CC5)CC4)c(Cl)cc23)CC1 (stereo not drawn) [Compound 116, 3-(4-(1-(2-(4-(2-(2-(6-Chloro-4-(4-(2-chloroacryloyl)piperazin-1-yl)-8-fluoroquinazolin-7-yl)-3-fluorophenoxy)ethyl)cyclohexyl)ethyl)piperidin-4-yl)-6-fluoro-1-oxoisoindolin-2-yl)piperidine-2,6-dione]		A′	A′	A (“A” represents a % viability value of less than 10%)
C=C(Cl)C(=O)N1CCN(c2ncnc3c(F)c(-c4c(F)cccc4OC[C@H]4CC[C@H](CN5CCC(c6cc(F)cc7c6CN(C6CCC(=O)NC6=O)C7=O)CC5)CC4)c(Cl)cc23)CC1 (stereo partly drawn) [Compound 117, 3-(4-(1-(((1r,4r)-4-((2-(6-Chloro-4-(4-(2-chloroacryloyl)piperazin-1-yl)-8-fluoro-quinazolin-7-yl)-3-fluorophenoxy)methyl)cyclohexyl)methyl)piperidin-4-yl)-6-fluoro-1-oxoisoindolin-2-yl)piperidine-2,6-dione]	< 10%	A′	A′	
C=C(Cl)C(=O)N1CCN(c2ncnc3c(F)c(-c4c(F)cccc4OCCC4CCC(CN5CCC(c6cc(F)cc7c6CN(C6CCC(=O)NC6=O)C7=O)CC5)CC4)c(Cl)cc23)CC1 (stereo not drawn) [Compound 118, 3-(4-(1-((4-(2-(2-(6-Chloro-4-(4-(2-chloroacryloyl)piperazin-1-yl)-8-fluoroquinazolin-7-yl)-3-fluorophenoxy)ethyl)cyclohexyl)methyl)piperidin-4-yl)-6-fluoro-1-oxoisoindolin-2-yl)piperidine-2,6-dione]	< 10%	A′	A′	
C=C(Cl)C(=O)N1CCN(c2ncnc3c(F)c(-c4c(F)cccc4OCCCCCCCN4CCCC(c5cc6c(cc5F)C(=O)N(C5CCC(=O)NC5=O)C6)C4)c(Cl)cc23)CC1 (stereo not drawn) [Compound 119, 3-(5-(1-(7-(2-(6-Chloro-4-(4-(2-chloroacryloyl)piperazin-1-yl)-8-fluoroquinazolin-7-yl)-3-fluorophenoxy)heptyl)piperidin-3-yl)-6-fluoro-1-oxoisoindolin-2-yl)piperidine-2,6-dione]	< 10%	A′	B′	
C=C(Cl)C(=O)N1CCN(c2ncnc3c(F)c(-c4c(F)cccc4OCCN4CCC(CCN5CCC(c6cc(F)cc7c6CN(C6CCC(=O)NC6=O)C7=O)CC5)CC4)c(Cl)cc23)CC1 (stereo not drawn) [Compound 120, 3-(4-(1-(2-(1-(2-(2-(6-Chloro-4-(4-(2-chloroacryloyl)piperazin-1-yl)-8-fluoroquinazolin-7-yl)-3-fluorophenoxy)ethyl)piperidin-4-yl)ethyl)piperidin-4-yl)-6-fluoro-1-oxoisoindolin-2-yl)piperidine-2,6-dione]	< 10%	B′	B′	
C=C(Cl)C(=O)N1CCN(c2ncnc3c(F)c(-c4c(F)cccc4OCCCN4CCC(c5cc(F)cc6c5CN(C5CCC(=O)NC5=O)C6=O)CC4)c(Cl)cc23)CC1 (stereo not drawn) [Compound 121, 3-(4-(1-(3-(2-(6-Chloro-4-(4-(2-chloroacryloyl)piperazin-1-yl)-8-fluoroquinazolin-7-yl)-3-fluorophenoxy)propyl)piperidin-4-yl)-6-fluoro-1-oxoisoindolin-2-yl)piperidine-2,6-dione]	< 10%	B′	B′	
C=C(Cl)C(=O)N1CCN(c2nc(=O)n(-c3c(C)ccnc3C(C)C)c3nc(-c4c(F)cccc4OCCCCCCCN4CCC(c5cc(F)cc6c5CN(C5CCC(=O)NC5=O)C6=O)CC4)c(F)cc23)[C@@H](C)C1 (stereo partly drawn) [Compound 122, 3-(4-(1-(7-(2-(4-((S)-4-(2-Chloroacryloyl)-2-methylpiperazin-1-yl)-6-fluoro-1-(2-isopropyl-4-methylpyridin-3-yl)-2-oxo-1,2-dihydropyrido[2,3-d]pyrimidin-7-yl)-3-fluorophenoxy)heptyl)piperidin-4-yl)-6-fluoro-1-oxoisoindolin-2-yl)piperidine-2,6-dione]	< 10%	A′	A′	
C=C(Cl)C(=O)N1CCN(c2ncnc3c(F)c(-c4c(F)cccc4OCCCCCCCN4CCC(c5cc6c(cc5F)C(=O)N(C5CCC(=O)NC5=O)C6)CC4)c(Cl)cc23)C[C@H]1CC#N (stereo partly drawn) [Compound 123, 2-((2R)-4-(6-Chloro-7-(2-((7-(4-(2-(2,6-dioxopiperidin-3-yl)-6-fluoro-1-oxoisoindolin-5-yl)piperidin-1-yl)heptyl)oxy)-6-fluorophenyl)-8-fluoroquinazolin-4-yl)-1-(2-chloroacryloyl)-piperazin-2-yl)acetonitrile]	< 10%	A′	A′	
